The values that follow come from patent US20090274638A1, “COSMETIC USE OF A C-GLYCOSIDE DERIVATIVE IN COMBINATION WITH ASCORBIC ACID” (L'OREAL, priority 2006, published 2009).

For this test, the system named is normal human dermal fibroblasts (NHDF). In words: type I procollagen ELISA assay on culture medium of fibroblasts after 72 hours incubation. It counts as cell-based. As to conditions: for Procollagen 1 / %/blank: NHDF, 72 hours; for Procollagen 1: DMEM containing 10% FCS, ELISA on culture medium; for %/blank: procollagen 1 relative to blank, DMEM 10% FCS. As for the experimental part:
The efficacy of a combination in accordance with the invention is tested by assaying the procollagen 1. To do this, a composition in accordance with the invention is placed in contact with normal human dermal fibroblasts and the whole is left to incubate for 72 hours before assaying.
The C-glycoside derivative used is C-β-D-xylopyranoside-2-hydroxypropane sold under the name Mexoryl® from Chimex. It is in the form of a solution containing 30% by weight of active material in a 60/40 water/1,2-propanediol mixture.
• Normal human dermal fibroblasts (NHDF) (R8PF2), obtained from a mammary plasty • Type: pool PF2, used at the 8th passage • Culture: 37° C., 5% CO2 • Test culture medium: DMEM (Invitrogen 21969035) • L-glutamine 2 mM (Invitrogen 25030024) • Penicillin 50 IU/ml streptomycin 50 μg/ml (Invitrogen 15070063) • 10% Foetal calf serum (v/v, Invitrogen 10270098).
The normal human dermal fibroblasts (R8PF2) are inoculated in whole DMEM medium and preincubated for 24 hours at 37° C. and 5% CO2. At 80% confluence, the culture medium is replaced with DMEM test medium containing 10% FCS with or without (blank) the products or mixtures to be tested or the reference (TGF-β). The cells are then incubated at 37° C. for 72 hours. Each experimental condition was performed in triplicate.
After incubation, the culture media are harvested and the type I procollagen assay is performed on a sample of medium using a specific ELISA assay kit and according to the supplier's instructions (Procollagen Type I C-Peptide EIA Kit, Bio-Whittaker MK101). An MTT viability test is performed on the cell lawns.

Turning to `CC(O)C[C@@H]1OC[C@@H](O)[C@H](O)[C@H]1O` (stereo partly drawn) [C-Glycoside derivative, C-β-D-xylopyranoside-2-hydroxypropane], under “1 mM”, the “Procollagen 1” value worked out at 1838 ng/mL and the “%/blank” value stood at 96%. Besides, the “amount of procollagen 1 synthesized by the fibroblasts (in words)” value (tested at 1 mm, culturing for 72 hours in DMEM medium containing 10% FCS) is listed as “does not significantly modify”.
With `O=C1O[C@H]([C@@H](O)CO)C(O)=C1O` [Ascorbic acid, ascorbic acid], for the setting “0.01 mg/ml”, the “Procollagen 1” value came to 17052 ng/mL and the “%/blank” value is reported as 887%. The “synthesis of procollagen 1 by the fibroblasts (in words)” value (tested at 0.01 mg/ml, culturing for 72 hours in DMEM medium containing 10% FCS) is “significantly increases”.
